Experimental data: ChEMBL document CHEMBL3421548, “PMA-SiO2 catalyzed synthesis of indolo[2,3-c]quinolines as potent anti cancer agents” (Bioorg Med Chem Lett, 2015)
Active and inactive are the calls of the source. No cut-off for these calls is given here.

Tests used:
Mycobacterium sp. = assay: Antimycobacterial activity against Mycobacterium sp.; format: functional, organism-based
DU-145 [1] = assay: Cytotoxicity against human DU145 cells after 48 hrs by SRB method; format: functional, cell-based; conditions: DU-145, 48 h
A549 = assay: Cytotoxicity against human A549 cells after 48 hrs by SRB method; format: functional, cell-based; conditions: A549, 48 h
MCF7 = assay: Cytotoxicity against human MCF7 cells after 48 hrs by SRB method; format: functional, cell-based; conditions: MCF7, 48 h
HeLa = assay: Cytotoxicity against human HeLa cells after 48 hrs by SRB method; format: functional, cell-based
[2] = Cytotoxicity against mouse NIH/3T3 cells after 48 hrs by SRB method; format: cell-based; conditions: NIH3T3, 48 h
DU-145 [3] = assay: Cell cycle arrest in human DU145 cells assessed as accumulation at G1 phase at 5 uM after 24 hrs by RNase/propidium iodide staining-based flow cytometry (reference value: 82.57%); format: functional
DU-145 [4] = assay: Cell cycle arrest in human DU145 cells assessed as accumulation at S phase at 5 uM after 24 hrs by RNase/propidium iodide staining-based flow cytometry (reference value: 4.24%); format: functional
DU-145 [5] = assay: Cell cycle arrest in human DU145 cells assessed as accumulation at G2/M phase at 5 uM after 24 hrs by RNase/propidium iodide staining-based flow cytometry (reference value: 13.7%); format: functional
DU-145 [6] = assay: Cell cycle arrest in human DU145 cells assessed as accumulation at G1 phase at 10 uM after 24 hrs by RNase/propidium iodide staining-based flow cytometry (reference value: 82.57%); format: functional
DU-145 [7] = assay: Cell cycle arrest in human DU145 cells assessed as accumulation at S phase at 10 uM after 24 hrs by RNase/propidium iodide staining-based flow cytometry (reference value: 4.24%); format: functional
DU-145 [8] = assay: Cell cycle arrest in human DU145 cells assessed as accumulation at G2/M phase at 10 uM after 24 hrs by RNase/propidium iodide staining-based flow cytometry (reference value: 13.7%); format: functional
DU-145 [9] = assay: Cell cycle arrest in human DU145 cells assessed as accumulation at G1 phase at 15 uM after 24 hrs by RNase/propidium iodide staining-based flow cytometry (reference value: 82.57%); format: functional
DU-145 [10] = assay: Cell cycle arrest in human DU145 cells assessed as accumulation at S phase at 15 uM after 24 hrs by RNase/propidium iodide staining-based flow cytometry (reference value: 4.24%); format: functional
DU-145 [11] = assay: Cell cycle arrest in human DU145 cells assessed as accumulation at G2/M phase at 15 uM after 24 hrs by RNase/propidium iodide staining-based flow cytometry (reference value: 13.7%); format: functional
DU-145 [12] = assay: Cell cycle arrest in human DU145 cells assessed as accumulation at G1 phase at 25 uM after 24 hrs by RNase/propidium iodide staining-based flow cytometry (reference value: 82.57%); format: functional
DU-145 [13] = assay: Cell cycle arrest in human DU145 cells assessed as accumulation at S phase at 25 uM after 24 hrs by RNase/propidium iodide staining-based flow cytometry (reference value: 4.24%); format: functional
DU-145 [14] = assay: Cell cycle arrest in human DU145 cells assessed as accumulation at G2/M phase at 25 uM after 24 hrs by RNase/propidium iodide staining-based flow cytometry (reference value: 13.7%); format: functional
DU-145 [15] = assay: Cell cycle arrest in human DU145 cells assessed as accumulation at G1 phase at 50 uM after 24 hrs by RNase/propidium iodide staining-based flow cytometry (reference value: 82.57%); format: functional
DU-145 [16] = assay: Cell cycle arrest in human DU145 cells assessed as accumulation at S phase at 50 uM after 24 hrs by RNase/propidium iodide staining-based flow cytometry (reference value: 4.24%); format: functional
DU-145 [17] = assay: Cell cycle arrest in human DU145 cells assessed as accumulation at G2/M phase at 50 uM after 24 hrs by RNase/propidium iodide staining-based flow cytometry (reference value: 13.7%); format: functional
DU-145 [18] = assay: Cell cycle arrest in human DU145 cells assessed as accumulation at G1 phase after 24 hrs by RNase/propidium iodide staining-based flow cytometry; format: functional
DU-145 [19] = assay: Reduction in NF-kappaB p65 phosphorylation in human DU145 cells at 5 to 25 uM after 24 hrs by Western blotting analysis; format: functional, cell-based
DU-145 [20] = assay: Effect on NF-kappaB total expression in human DU145 cells at 5 to 25 uM after 24 hrs by Western blotting analysis; format: functional, cell-based
DU-145 [21] = assay: Cell cycle arrest in human DU145 cells assessed as accumulation at G2/M phase after 24 hrs by RNase/propidium iodide staining-based flow cytometry; format: functional

SMILES	Activity (Mycobacterium sp.)	IC50 (DU-145 [1]) [µM]	IC50 (A549) [µM]	IC50 (MCF7) [µM]	IC50 (HeLa) [µM]	IC50 [2] [µM]	other results
CC(C)c1nc2ccccc2c2c1[nH]c1ccccc12	inactive	43.9	18.1	20.2	18.2	> 200	
COc1ccc(-c2nc3ccccc3c3c2[nH]c2ccccc23)cc1	inactive	62	23.8	27.8	36.1	114	
COc1cccc2c1C(=O)c1c(O)c3c(c(O)c1C2=O)C[C@@](O)(C(=O)CO)C[C@@H]3O[C@H]1C[C@H](N)[C@H](O)[C@H](C)O1 [DOXORUBICIN]		3.11	1.11	2.31	1.43	5.91	
CCc1ccc(-c2nc3ccccc3c3c2[nH]c2ccccc23)cc1	inactive	46.2	9.33	9.84	19	200	
Cc1cn([C@H]2C[C@H](N=[N+]=[N-])[C@@H](CO)O2)c(=O)[nH]c1=O [ZIDOVUDINE]	inactive	34.5	16.2	35	65.5	> 200	
FC(F)(F)c1ccc(-c2nc3ccccc3c3c2[nH]c2ccccc23)cc1	inactive	4.19	3.71	5.07	20.8	110	
c1ccc(Oc2ccc(-c3nc4ccccc4c4c3[nH]c3ccccc34)cc2)cc1	inactive	54	13.2	49.6	42.8	> 200	
C=CCOc1ccc(-c2nc3ccccc3c3c2[nH]c2ccccc23)cc1	inactive	23.6	6.22	11.9	27.5	> 200	
Fc1cccc(Cl)c1-c1nc2ccccc2c2c1[nH]c1ccccc12	inactive	14	6.35	13.3	22.9	71.1	
Brc1ccc(-c2nc3ccccc3c3c2[nH]c2ccccc23)cc1	inactive	18.6	17.1	23.4	49.3	> 200	
c1ccc2nc(-c3nc4ccccc4c4c3[nH]c3ccccc34)ccc2c1	inactive	41.5	68.4	52.6	69.9	> 200	
c1csc(-c2ccc(-c3nc4ccccc4c4c3[nH]c3ccccc34)s2)c1	inactive	0.52	3.03	10.7	6.59	89.5	Activity (DU-145 [3]): 84.55%; Activity (DU-145 [4]): 3.61%; Activity (DU-145 [5]): 12.38%; Activity (DU-145 [6]): 86.17%; Activity (DU-145 [7]): 3.79%; Activity (DU-145 [8]): 10.74%; Activity (DU-145 [9]): 87.81%; Activity (DU-145 [10]): 2.97%; Activity (DU-145 [11]): 9.6%; Activity (DU-145 [12]): 89.28%; Activity (DU-145 [13]): 2.83%; Activity (DU-145 [14]): 7.89%; Activity (DU-145 [15]): 97.58%; Activity (DU-145 [16]): 0.63%; Activity (DU-145 [17]): 1.89%; Activity (DU-145 [18]): Dose-dependent effect; Activity (DU-145 [19]): Active; Activity (DU-145 [20]): inactive
Cc1cn([C@H]2C[C@H](N=[N+]=[N-])[C@@H](c3nc4ccccc4c4c3[nH]c3ccccc34)O2)c(=O)[nH]c1=O	inactive	10.1	6.2	4.78	17.3	63.3	Activity (DU-145 [3]): 80.75%; Activity (DU-145 [4]): 4.16%; Activity (DU-145 [5]): 15.78%; Activity (DU-145 [6]): 77.6%; Activity (DU-145 [7]): 5%; Activity (DU-145 [8]): 18.23%; Activity (DU-145 [9]): 74.76%; Activity (DU-145 [10]): 6.53%; Activity (DU-145 [11]): 19.79%; Activity (DU-145 [12]): 62.12%; Activity (DU-145 [13]): 11.78%; Activity (DU-145 [14]): 28.22%; Activity (DU-145 [15]): 52.07%; Activity (DU-145 [16]): 9.74%; Activity (DU-145 [17]): 39.57%; Activity (DU-145 [21]): Dose-dependent effect; Activity (DU-145 [19]): Active; Activity (DU-145 [20]): inactive
c1ccc(COc2ccc(-c3nc4ccccc4c4c3[nH]c3ccccc34)cc2)cc1	inactive	70	29.9	58.9	67.9	> 200	
